These results are taken from PubChem BioAssay (NCI).

Several values for one entry are separate records, joined by “and”; a condition that tells them apart may be missing. Equal values may be shown once.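 Values below derive from 48-hour exposures of cells grown in 96-well plates, with endpoints linearly interpolated between the two concentrations bracketing the appropriate inhibition level. GI50 = concentration required for 50% inhibition of growth. TGI denotes the concentration required for complete inhibition of growth.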

What all share (assay): NCI anticancer screen, dose series, 48 h
The test system of assay [1] is SF-295 CNS.
The test system of assay [2] is SN12C renal.
Assay [3] relates to HOP-92 NSCLC.
Assay [4] deals with OVCAR-8 ovarian.
Assay [5] has as its system 786-0 renal.
Assay [6] deals with HT29 colon.
In assay [7] the test system is HL-60(TB) leukemia.
Assay [8] concerns NCI-H460 lung.
In assay [9] the test system is SR leukemia.
The subject of assay [10] is OVCAR-3 ovarian.

In the case of `CCOCC(=O)N[C@H]1CCc2cc(OC)c(OC)c(OC)c2-c2ccc(OC)c(=O)cc21`, the TGI is 0.379 µM in assay [1]; greater than 100 µM in assay [2]; 7.24 µM in assay [3]; 17 µM in assay [4]; greater than 100 µM in assay [5]; greater than 8.15 µM in assay [6]. Moreover, the TGI in [7] is 0.101 µM; in assay [8], greater than 16.7 µM; in [9], greater than 100 µM; in assay [10], 0.0849 µM.

Turning to `C[N+]1=C(/C=C/c2ccc(O)c3ncccc23)C(C)(C)c2ccccc21`, the GI50 was 2.21 µM in assay [1]; 2.82 µM in [2]; 2.22 µM in [3]; 3.55 µM in [4]; 3.57 µM in assay [5]; 3.19 µM in assay [6]. For the same molecule, the GI50 was 2.73 µM in assay [7], 1.77 µM in assay [8], 2.13 µM in assay [9] and 2.1 µM in assay [10]. For the same molecule, the TGI was 5.24 µM in assay [1]; 10.4 µM in [2]; 7.67 µM in assay [3]; greater than 100 µM in [4]; 13 µM in assay [5]; 12.6 µM in assay [6]. Moreover, the TGI in assay [7] is 8.04 µM; in assay [8] it was 3.8 µM; in assay [9] it was 15 µM; in assay [10], 5.46 µM.

For `O=C1c2cccc([N+](=O)[O-])c2C(=O)N1c1ncn[nH]1`, the TGI is greater than 100 µM in assay [1]; greater than 100 µM in assay [2]; 52.6 µM in [3]; greater than 100 µM in assay [4]; greater than 100 µM in assay [5]; greater than 100 µM in assay [6]. Besides, the TGI in [7], in assay [8], in assay [9] and in [10] was greater than 100 µM each time.

Turning to `CS(=O)(=O)CCNCc1ccc(-c2ccc3ncnc(Nc4ccc(OCc5ccccc5)cc4)c3c2)o1`, the GI50 in assay [1] was 4.89 µM; in assay [2], 5.87 µM; in assay [3] it was 3.13 µM; in [4], 8.73 µM; in [5], 4.35 µM; in [6], 3.33 µM. In addition, the GI50 in assay [7] is 6.4 µM; in assay [8], 3.73 µM; in assay [9], 5.06 µM; in assay [10], 8.47 µM. Besides, the TGI was 10.8 µM in [1]; greater than 25 µM in assay [2]; 14.1 µM in assay [3]; greater than 25 µM in [4]; 8.73 µM in assay [5]; 13.5 µM in assay [6]. In addition, the TGI is 14 µM in assay [7], greater than 25 µM in assay [8], greater than 19.9 µM in assay [9] and greater than 25 µM in assay [10].

As to `O=C(O)C(CS)Nc1c2ccccc2nc2ccccc12` (stereo unspecified), the TGI in [1], in assay [2], in assay [3], in assay [4], in [5] and in [6] was greater than 100 µM in each case. Besides, the TGI in assay [7], in assay [8], in assay [9] and in assay [10] was greater than 100 µM throughout.

Consider `Cc1ccc(-c2nc3nc(-c4ccccc4)nc(N4CCCNCC4)c3o2)cc1`, for which the GI50 in [1] was 1.77 µM; in assay [2] it was 1.56 µM; in assay [3], 1.44 µM; in assay [4], 2.06 µM; in assay [5], 1.52 µM; in assay [6], 1.6 µM. Also, the GI50 in assay [7] was 0.726 µM; in assay [8] it was 1.86 µM; in [9] it was 0.222 µM; in [10], 1.84 µM. Moreover, the TGI in assay [1] amounted to 3.33 µM; in [2] it was 3.06 µM; in assay [3] it was 3.01 µM; in [4] it was 4.1 µM; in assay [5], 2.97 µM; in [6], 3.08 µM. Further, the TGI in assay [7] is 2.49 µM; in assay [8], 3.53 µM; in [9] it was 0.554 µM; in assay [10], 3.32 µM.

Take `O=C(O)C(=Cc1ccc(-c2ccccc2)cc1)C(=O)O`: the TGI is 53.3 µM in assay [1]; 35.1 µM in [2]; greater than 68.6 µM in assay [3]; greater than 92 µM in assay [4]; 41.4 µM in [5]; greater than 49.3 µM in assay [6]. Besides, the TGI was 26.6 µM in assay [7], 35.7 µM in [8], 14.7 µM in assay [9] and 17.5 µM in [10].

As for `O=C(O)c1nn(-c2ccccc2-c2n[nH]c(=O)[nH]c2=O)c(=O)[nH]c1=O`, the TGI in assay [1], in assay [2], in assay [3], in [4], in [5] and in assay [6] was greater than 100 µM each time. Moreover, the TGI in assay [7], in assay [8], in assay [9] and in assay [10] was greater than 100 µM each time.

In the case of `CC(=O)OCC1OC(NC(=S)N/N=C2\CC(c3ccccc3)Oc3ccccc32)C(OC(C)=O)C(OC(C)=O)C1OC(C)=O` (stereo unspecified), the TGI in assay [1], in assay [2], in [3], in assay [4], in [5] and in [6] was greater than 100 µM each time. Moreover, the TGI in assay [7], in [8], in assay [9] and in assay [10] was greater than 100 µM in each case.

In the case of `O=C1C(Cl)=C(NCCN2CCOCC2)C(=O)c2ncccc21`, the TGI in [1] was 3.33 µM and 3.3 µM; in assay [2] it was 3.2 µM and 3.84 µM; in assay [3] it was 3.84 µM and 5.47 µM; in assay [4], 3.79 µM and 3.29 µM; in assay [5] it was 2.81 µM and 7.83 µM; in assay [6], 6.74 µM. Further, the TGI is 4.44 µM in [7]; 3.23 µM and 5.37 µM in [8]; 5.61 µM in assay [9]; 3.69 µM and 3.01 µM in [10]. The GI50 is 1.93 µM in assay [2]; 2.5 µM in assay [5]; 1.43 µM in assay [7]; 1.95 µM in [8]; 2.01 µM in assay [9].

For `CC1CN1C(=O)NCCCCCCNC(=O)N1CC1C` (stereo unspecified), the TGI in [1], in assay [2], in [3], in [4], in assay [5] and in assay [6] was greater than 100 µM throughout. The TGI in [7] was greater than 100 µM; in assay [8], greater than 66.6 µM; in [9], 60.2 µM; in assay [10] it was greater than 100 µM.

Turning to `COc1ccc2c(c1)CCCN2c1c2ccccc2nc2ccccc12`, the GI50 in assay [1] is 0.281 µM; in [2] it was 0.73 µM; in [3] it was 0.683 µM; in assay [4], 0.481 µM; in [5] it was 0.549 µM; in assay [6], 0.36 µM. In addition, the GI50 in [7] was 0.298 µM; in assay [8], 0.358 µM; in [9] it was 0.383 µM; in assay [10] it was 0.275 µM. Moreover, the TGI in assay [1] was greater than 100 µM; in [2], greater than 100 µM; in assay [3], 6.46 µM; in [4], greater than 100 µM; in assay [5], 9.3 µM; in assay [6], greater than 100 µM. The TGI is 1.09 µM in assay [7], greater than 100 µM in assay [8], greater than 100 µM in assay [9] and 0.75 µM in assay [10].

With `COc1ccc2c(c1)C(=O)c1c-2n(CCCn2ccnc2)c(=O)c2cc([N+](=O)[O-])ccc12`, the GI50 in assay [1] is less than 0.01 µM; in assay [2] it was less than 0.01 µM; in assay [3] it was less than 0.0397 µM; in assay [4], less than 0.01 µM; in assay [5] it was less than 0.01 µM; in assay [6], less than 0.01 µM. In addition, the GI50 in assay [7] was less than 0.01 µM; in assay [8], less than 0.01 µM; in [9], less than 0.01 µM; in assay [10], 0.0254 µM. For the same molecule, the TGI in assay [2] is greater than 100 µM; in assay [4], greater than 45.7 µM; in [6], greater than 100 µM; in assay [7], 16.1 µM; in assay [8] it was 0.241 µM; in assay [10] it was 4.41 µM.

`O=C1Nc2ccccc2C1(c1ccc(O)cc1)c1ccc(O)cc1`: the GI50 in [1] is 16.2 µM; in [2], 0.312 µM; in [3], 2.42 µM; in assay [4], 0.273 µM; in assay [5], 26.7 µM; in assay [6] it was 29.3 µM. Further, the GI50 was 22.9 µM in assay [7], 18.5 µM in assay [8], 32.9 µM in [9] and 0.11 µM in assay [10]. Moreover, the TGI in assay [1] is 49.4 µM; in assay [2], 50.6 µM; in assay [3], 21.2 µM; in [4], 77.5 µM; in assay [5] it was 75.9 µM; in assay [6] it was greater than 90 µM. The TGI is 63 µM in assay [7], 37.9 µM in [8], greater than 96.3 µM in assay [9] and 0.899 µM in [10].
